Experiments:
EV71 = assay: Enterovirus infection-induced cytopathic effect in RD cells; assay type: cell-based, enterovirus type 71; conditions: infected 36 hours, M.O.I.=0.1, compound 125 μM
Experimental: RD cells were cultured in a 24-well culture plate at an initial density of 3×10^4 per well with 1 ml of 2% FBS-containing MEM medium per well. The cells were incubated in an incubator (37° C., 5% CO2) overnight. The medium was removed, and then 1 ml of fresh 2% FBS-containing MEM medium was simultaneously added into each well. The RD cells were infected with EV71 virus strain (M.O.I.=0.1). Different concentrations of compound 1 (final concentrations were 0, 2.5, 25 and 125 μM) were added into different wells. The RD cells were incubated in an incubator (37° C., 5% CO2) for 36 hours, and then their morphology was observed by photography.

[1] = MTT assay, cell survival / CC50 in BHK-21 cells; assay type: cell-based; conditions: hamster, read-out: concentration of 50% cytotoxicity (CC50)
Experimental: (§1) In this example, 3-(4,5-dimethylthiazol-2-yl)-2,5-diphenyl tetrazolium bromide (MTT) was used to determine if the survival rate of BHK-21 cells, TE671cells and RD cells would be influenced when being treated with different concentrations of compound 1 prepared in Example 1. The concentration of 50% cytotoxicity (CC50) of compound 1 in BHK-21 cells, TE671cells and RD cells was also calculated.
(§2) MTT is a water-soluble tetrazolium salt which can react in the mitochondrial respiratory chain in living cells to metabolize and reduce the tetrazolium bromide shown in the structure of MTT and to form an water-insoluble purple crystal formazan under the reaction of succinate dehydrogenase (SDH) and cytochrome c (cyt c). The amount of the produced crystal is directly proportional to the number of living cells (because the SDH will disappear from dead cells, and thus, the MTT cannot be reduced). Furthermore, a mitochondrium is an organelle in cells that is most sensitive to the environment, and thus, the MTT assay can serve as a marker for the survival rate of cells treated by the drug.
(§3) BHK-21 cells, TE671cells and RD cells were cultured in a 96-well culture plate, respectively, with an initial density of 3×10^3 per well, and with 100 μl of 2% FBS-containing MEM medium per well. […] The absorbances of the samples were measured by ELISA at a wavelength of 570/630 nm.

JEV T1P1 [2] = assay: Viral plaque test, JEV T1P1 replication in BHK-21 cells; assay type: cell-based, Japanese encephalitis virus; conditions: treated for 48 or 72 hours
Experimental: BHK-21 cells and/or TE671cells were separately cultured in a 24-well culture plate, with an initial density of 3×10^4 per well, and with 1 ml of 2% FBS-containing MEM medium per well. The cells were incubated in an incubator (37° C., 5% CO2) overnight, and the medium was removed until the cells adhered to the plate. Then, fresh 2% FBS-containing MEM medium was simultaneously added into each well of the culture plate. The cells were infected with a JEV T1P1 virus strain, wherein the amount of JEV T1P1 used to infect BHK-21 cells was a multiplicity of infection (M.O.I.)=0.1, and the amount of JEV T1P1 used to infect TE671 cells was M.O.I.=0.05. Different concentrations of compound 1 (final concentrations were 0, 2.5, 25 and 125 μM, respectively) were added into different wells. The culture plate was placed into an incubator (37° C., 5% CO2) and maintained therein. […]
BHK-21 cells were cultured in a 6-well culture plate at an initial density of 3×10^5 per well with 2 ml of 2% FBS-containing MEM medium per well. […] The cells were washed with clear water, and then the viral plaques were counted to calculate the virus titer.

JEV T1P1 [3] = assay: Cytopathic effect test, JEV T1P1-infected TE671 cells; assay type: cell-based, Japanese encephalitis virus
Experimental: BHK-21 cells and/or TE671cells were separately cultured in a 24-well culture plate, with an initial density of 3×10^4 per well, and with 1 ml of 2% FBS-containing MEM medium per well. The cells were incubated in an incubator (37° C., 5% CO2) overnight, and the medium was removed until the cells adhered to the plate. Then, fresh 2% FBS-containing MEM medium was simultaneously added into each well of the culture plate. The cells were infected with a JEV T1P1 virus strain, wherein the amount of JEV T1P1 used to infect BHK-21 cells was a multiplicity of infection (M.O.I.)=0.1, and the amount of JEV T1P1 used to infect TE671 cells was M.O.I.=0.05. Different concentrations of compound 1 (final concentrations were 0, 2.5, 25 and 125 μM, respectively) were added into different wells. The culture plate was placed into an incubator (37° C., 5% CO2) and maintained therein.
When BHK-21 cells were infected with JEV T1P1 virus strain for 48 and 72 hours as indicated in the above experiment (1), the cytopathic effect was observed by photography, while the cytopathic effect of TE671 cells was observed by photography when TE671 cells were infected with the JEV T1P1 virus strain for 36 and 48 hours. In addition, 200 μl culture medium supernatant of both cells was collected from each time point (i.e., 48 and 72 hours), thereby, providing the use for a viral plaque test in Example 4.

[4] = MTT assay, cell survival / CC50 in RD cells; assay type: cell-based; conditions: human, read-out: concentration of 50% cytotoxicity (CC50)
Experimental: as §1, §2, §3

Q: Which results are given for CCOC(=O)C1=C(Nc2cc(C)cc(C)c2)OCC1=O [Compound 1, ethyl 2-(3′,5′-dimethylanilino)-4-oxo-4,5-dihydrofuran-3-carboxylate]?
A: EV71-induced cytopathic effect (EV71): effectively inhibited; CC50 at 48 h [1]: > 500 µM; replication of JEV T1P1 (virus titer) (JEV T1P1 [2]): significantly decreased; JEV T1P1-induced cytopathic effect (JEV T1P1 [3]; infected 36 hours, M.O.I.=0.05, compound 25 μM simultaneously): inhibited; JEV T1P1-induced cytopathic effect (JEV T1P1 [3]; infected 48 hours, M.O.I.=0.05, compound 25 μM): inhibited; CC50 at 48 h [4]: 222 µM

Reference: US9205073B2, “Method for treating virus infection using derivative of aniline” (CHINA MEDICAL UNIVERSITY, priority 2014, dated 2015)
